Bridges are numbered along the chain shown (N, C = ends). Roman numbers before positions name the chains, in order. [ ]: non-standard residue; d: D form. GABA = NCCCC(=O)O
Key:
SARS-CoV-2 S1S2 trimer = SARS-CoV-2 S1S2 trimer (Severe acute respiratory syndrome coronavirus 2, UniProt P0DTC2); format: binding
[1] = test system: pre-formed complex of SARS-CoV-2 S1S2 monomer and hACE2; format: binding, SARS-CoV-2; human
SARS-CoV-2 S1S2 monomer = SARS-CoV-2 S1S2 monomer (Severe acute respiratory syndrome coronavirus 2, UniProt P0DTC2); format: binding
SARS-CoV-2 RBD = SARS-CoV-2 RBD (Severe acute respiratory syndrome coronavirus 2, UniProt P0DTC2); format: binding
[2] = biological target: SARS-CoV-2 S1S2 spike interaction with hACE2 (Severe acute respiratory syndrome coronavirus 2, UniProt P0DTC2); format: binding, SARS-CoV-2; human

Row | Compound | % of theor. Rmax (SARS-CoV-2 S1S2 trimer) [%] | complex stability increase compared with CVRBDL-3 (factor) (SARS-CoV-2 S1S2 trimer) | maximum displacement compared with CVRBDL-3 (factor) [1] | DC50 ([1]; read-out: DC50 (compound concentration where 50% of the maximum displacement is reached)) [nM] | % of theor. Rmax (SARS-CoV-2 S1S2 monomer) [%] | complex stability increase compared with CVRBDL-3 (factor) (SARS-CoV-2 S1S2 monomer) | % of theor. Rmax (SARS-CoV-2 RBD) [%] | complex stability increase compared with CVRBDL-3 (factor) (SARS-CoV-2 RBD) | increase of inhibition efficiency compared with CVRBDL-3 (factor) [2] | saturation level of the inhibitory effect (% of S1S2 binding level without compound) [2] | steady-state reduction of S1S2 binding signal to hACE2 [2]
1 | I: H-HDFWWEYDKKNDTWTR[GABA]R[GABA]RK-NH2 / II: H-HDFWWEYDKKNDTWTR[GABA]R[GABA]R (amide I:21-II:C) [CVRBDL-3_3] | 76 | ~ 2.5 | 1.6 | 417 | 104 | ~ 2.5 | 65 | ~ 2 | ~ 11 |  | 
2 | C[C@@H](O)[C@H](NC(=O)[C@H](Cc1c[nH]c2ccccc12)NC(=O)[C@@H](NC(=O)[C@H](CC(=O)O)NC(=O)[C@H](CC(N)=O)NC(=O)[C@H](CCCCN)NC(=O)[C@H](CCCCN)NC(=O)[C@H](CC(=O)O)NC(=O)[C@H](Cc1ccc(O)cc1)NC(=O)[C@H](CCC(=O)O)NC(=O)[C@H](Cc1c[nH]c2ccccc12)NC(=O)[C@H](Cc1c[nH]c2ccccc12)NC(=O)[C@H](Cc1ccccc1)NC(=O)[C@H](CC(=O)O)NC(=O)[C@@H](N)Cc1c[nH]cn1)[C@@H](C)O)C(=O)N[C@@H](CCCNC(=N)N)C(=O)N[C@@H](CCCNC(=N)N)C(=O)N[C@@H](CCCNC(=N)N)C(=O)N[C@@H](CCCNC(=N)N)C(N)=O [CVRBDL-3] |  |  |  |  |  |  |  |  |  | ~ 58% | ~ 33%

From paper PMC8962251 (Biomedicines, 2022)
